pIC50: −log10 of the molar value.
How the values were obtained:
β-secretase I (BACE1) = β-secretase I (BACE1) (Homo sapiens, UniProt P56817); assay: Automated (CyclOps) biochemical assay BACE1
β-secretase II (BACE2) = biological target: T1, β-secretase II (BACE2) (Homo sapiens, UniProt Q9Y5Z0); assay: Automated (CyclOps) biochemical assay BACE2
T1 sequence (Q9Y5Z0 63-518): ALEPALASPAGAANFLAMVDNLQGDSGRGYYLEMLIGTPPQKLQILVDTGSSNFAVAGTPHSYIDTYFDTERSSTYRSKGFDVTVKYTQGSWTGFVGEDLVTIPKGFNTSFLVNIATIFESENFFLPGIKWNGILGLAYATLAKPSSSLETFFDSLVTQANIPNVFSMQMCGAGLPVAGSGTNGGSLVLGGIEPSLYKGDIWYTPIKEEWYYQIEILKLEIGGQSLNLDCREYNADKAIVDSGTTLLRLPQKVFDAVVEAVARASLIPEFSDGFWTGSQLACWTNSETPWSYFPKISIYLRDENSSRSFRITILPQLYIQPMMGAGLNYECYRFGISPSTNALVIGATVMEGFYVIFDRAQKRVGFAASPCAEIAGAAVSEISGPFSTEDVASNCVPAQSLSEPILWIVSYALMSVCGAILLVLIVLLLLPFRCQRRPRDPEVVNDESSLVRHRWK

Chain of β-secretase I (BACE1) (P56817 46-501): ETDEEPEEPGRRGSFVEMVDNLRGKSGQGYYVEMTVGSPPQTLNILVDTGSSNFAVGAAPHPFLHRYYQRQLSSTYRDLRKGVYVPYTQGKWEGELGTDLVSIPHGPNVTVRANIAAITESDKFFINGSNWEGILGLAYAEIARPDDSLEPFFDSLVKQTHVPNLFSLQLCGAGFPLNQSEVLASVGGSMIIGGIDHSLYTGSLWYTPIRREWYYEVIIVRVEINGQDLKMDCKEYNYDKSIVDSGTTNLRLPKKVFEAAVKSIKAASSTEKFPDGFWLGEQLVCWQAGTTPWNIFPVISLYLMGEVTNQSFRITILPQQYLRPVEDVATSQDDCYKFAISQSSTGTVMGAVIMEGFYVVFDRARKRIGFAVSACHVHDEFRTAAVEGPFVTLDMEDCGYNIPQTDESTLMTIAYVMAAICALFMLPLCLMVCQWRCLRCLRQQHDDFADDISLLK

Row | SMILES | pIC50 (β-secretase I (BACE1)) | pIC50 (β-secretase II (BACE2))
1 | COc1cccc(C2CCN(C(=O)c3cnc(OC)c4c3C[C@H]3CSC(N)=N[C@@]3(c3ccc(F)cc3F)C4)C2)c1 (single isomer, unassigned) [Compound 25] | 7.83 | 7.05
2 | COc1ncc(C(=O)N2CCN(c3cccnc3)CC2)c2c1C[C@]1(c3ccc(F)cc3F)N=C(N)SC[C@@H]1C2 [Compound 5] | 6.84 | 6.49
3 | COc1ncc(C(=O)N2CCC(C#N)C2)c2c1C[C@]1(c3ccc(F)cc3F)N=C(N)SC[C@@H]1C2 (stereo partly shown) [Compound 6] | 7.25 | 6.55
4 | COc1ncc(C(=O)N2CCN(c3nccs3)CC2)c2c1C[C@]1(c3ccc(F)cc3F)N=C(N)SC[C@@H]1C2 [Compound 7] | 6.49 | 6.06
5 | COc1ncc(C(=O)N2Cc3cccnc3C2)c2c1C[C@]1(c3ccc(F)cc3F)N=C(N)SC[C@@H]1C2 [Compound 8] | 6.00 | 5.45
6 | COc1ncc(C(=O)N2CC(C)OC(C)C2)c2c1C[C@]1(c3ccc(F)cc3F)N=C(N)SC[C@@H]1C2 (stereo partly shown) [Compound 9] | 6.44 | 5.67
7 | COc1ncc(C(=O)N2CCN(C(=O)C3CC3)CC2)c2c1C[C@]1(c3ccc(F)cc3F)N=C(N)SC[C@@H]1C2 [Compound 10] | 6.31 | 5.84
8 | COCC1CCN(C(=O)c2cnc(OC)c3c2C[C@H]2CSC(N)=N[C@@]2(c2ccc(F)cc2F)C3)CC1 [Compound 11] | 6.81 | 6.11
9 | COc1ncc(C(=O)N2CCS(=O)(=O)CC2)c2c1C[C@]1(c3ccc(F)cc3F)N=C(N)SC[C@@H]1C2 [Compound 12] | 6.30 | 6.08
10 | COc1ncc(C(=O)N2CCOC(c3cccc(C)c3)C2)c2c1C[C@]1(c3ccc(F)cc3F)N=C(N)SC[C@@H]1C2 (stereo partly shown) [Compound 13] | 7.16 | 6.51
11 | COc1ncc(C(=O)N2CCC(Oc3ccc(F)cc3)CC2)c2c1C[C@]1(c3ccc(F)cc3F)N=C(N)SC[C@@H]1C2 [Compound 14] | 7.96 | 7.41
12 | COc1ncc(C(=O)Nc2ccncc2)c2c1C[C@]1(c3ccc(F)cc3F)N=C(N)SC[C@@H]1C2 [Compound 16] | 7.27 | 6.86
13 | COc1ncc(C(=O)N2CCN(c3ccncc3)CC2)c2c1C[C@]1(c3ccc(F)cc3F)N=C(N)SC[C@@H]1C2 [Compound 17] | 6.80 | 5.62
14 | COc1ncc(C(=O)N(C)Cc2ccncc2)c2c1C[C@]1(c3ccc(F)cc3F)N=C(N)SC[C@@H]1C2 [Compound 18] | 8.07 | 7.52
15 | COc1ncc(C(=O)N2C[C@H]3CC[C@@H](C2)O3)c2c1C[C@]1(c3ccc(F)cc3F)N=C(N)SC[C@@H]1C2 [Compound 19] | 7.73 | 6.93
16 | COc1ncc(C(=O)N2CCCCC2)c2c1C[C@]1(c3ccc(F)cc3F)N=C(N)SC[C@@H]1C2 [Compound 20] | 7.30 | 6.71
17 | COc1ncc(C(=O)N(C)c2ccncc2)c2c1C[C@]1(c3ccc(F)cc3F)N=C(N)SC[C@@H]1C2 [Compound 21] | 6.95 | 6.49
18 | COc1ncc(C(=O)N2CCCC(OC)C2)c2c1C[C@]1(c3ccc(F)cc3F)N=C(N)SC[C@@H]1C2 (stereo partly shown) [Compound 23] | 7.21 | 6.49
19 | COc1cccc(N2CCN(C(=O)c3cnc(OC)c4c3C[C@H]3CSC(N)=N[C@@]3(c3ccc(F)cc3F)C4)CC2)c1 [Compound 24] | 7.21 | 7.20
20 | COc1ncc(C(=O)N2CCC(c3ccncc3)C2)c2c1C[C@]1(c3ccc(F)cc3F)N=C(N)SC[C@@H]1C2 (stereo partly shown) [Compound 26] | 7.80 | 6.29
21 | COc1ncc(C(=O)N2CCN(C(C)=O)CC2)c2c1C[C@]1(c3ccc(F)cc3F)N=C(N)SC[C@@H]1C2 [Compound 27] | 6.02 | 5.38
22 | COc1cc(C(=O)NCc2cnc(OC)c3c2C[C@H]2CSC(N)=N[C@@]2(c2ccc(F)cc2F)C3)c(OC)nn1 [Compound 41] | 7.10 | 6.29
23 | COc1ncc(CNC(=O)CN2CCOCC2)c2c1C[C@]1(c3ccc(F)cc3F)N=C(N)SC[C@@H]1C2 [Compound 44] | 7.38 | 7.10
24 | COc1cc(OC)nc(C(=O)NCc2cnc(OC)c3c2C[C@H]2CSC(N)=N[C@@]2(c2ccc(F)cc2F)C3)n1 [Compound 49] | 7.46 | 6.75

The next lines start with the values.

Row | pIC50 (β-secretase I (BACE1)) | pIC50 (β-secretase II (BACE2)) | SMILES
25 | 7.24 | 6.75 | COc1ncc(CNC(=O)c2ccc(C#N)cc2)c2c1C[C@]1(c3ccc(F)cc3F)N=C(N)SC[C@@H]1C2 [Compound 33]
26 | 6.66 | 6.27 | COc1ccccc1C(=O)NCc1cnc(OC)c2c1C[C@H]1CSC(N)=N[C@@]1(c1ccc(F)cc1F)C2 [Compound 34]
27 | 6.86 | 6.14 | COc1ncc(CNC(=O)c2ccncc2C(F)(F)F)c2c1C[C@]1(c3ccc(F)cc3F)N=C(N)SC[C@@H]1C2 [Compound 35]
28 | 7.66 | 7.44 | COc1ncc(CNC(=O)c2cnc(C(F)(F)F)nc2)c2c1C[C@]1(c3ccc(F)cc3F)N=C(N)SC[C@@H]1C2 [Compound 36]
29 | 7.60 | 7.15 | COc1ncc(CNC(=O)c2ncc(F)cc2F)c2c1C[C@]1(c3ccc(F)cc3F)N=C(N)SC[C@@H]1C2 [Compound 37]
30 | 7.72 | 6.94 | COc1ncc(CNC(=O)c2ccncc2F)c2c1C[C@]1(c3ccc(F)cc3F)N=C(N)SC[C@@H]1C2 [Compound 38]
31 | 6.74 | 6.41 | COc1cccc(C(=O)NCc2cnc(OC)c3c2C[C@H]2CSC(N)=N[C@@]2(c2ccc(F)cc2F)C3)n1 [Compound 39]
32 | 6.95 | 6.73 | COc1ncc(CNC(=O)c2cccnc2C)c2c1C[C@]1(c3ccc(F)cc3F)N=C(N)SC[C@@H]1C2 [Compound 40]
33 | 7.13 | 6.86 | COc1ncc(CNC(=O)c2cnoc2C(C)C)c2c1C[C@]1(c3ccc(F)cc3F)N=C(N)SC[C@@H]1C2 [Compound 42]
34 | 7.68 | 7.01 | COc1ncc(CNC(=O)c2cccnc2F)c2c1C[C@]1(c3ccc(F)cc3F)N=C(N)SC[C@@H]1C2 [Compound 43]
35 | 8.07 | 7.53 | COc1ncc(CNC(=O)c2cccnc2)c2c1C[C@]1(c3ccc(F)cc3F)N=C(N)SC[C@@H]1C2 [Compound 45]
36 | 7.44 | 6.39 | CCOc1ncccc1C(=O)NCc1cnc(OC)c2c1C[C@H]1CSC(N)=N[C@@]1(c1ccc(F)cc1F)C2 [Compound 46]
37 | 7.59 | 6.68 | COc1ncccc1C(=O)NCc1cnc(OC)c2c1C[C@H]1CSC(N)=N[C@@]1(c1ccc(F)cc1F)C2 [Compound 47]
38 | 6.94 | 6.51 | COc1ncc(CNC(=O)c2ccncn2)c2c1C[C@]1(c3ccc(F)cc3F)N=C(N)SC[C@@H]1C2 [Compound 50]

Source: patent US20190389882A1, “INHIBITORS OF BETA SECRETASE” (Janssen Pharmaceutica NV, priority 2017, published 2019)
